According to patent US6642251B1, “Geometrically restricted 2-indolinone derivatives as modulators of protein kinase activity” (Sugen, Inc., priority 1998, dated 2003):

How the values were obtained:
PDGFR = target: T1, PDGFR (Homo sapiens, UniProt P09619); assay: Biochemical PDGFR assay (bio PDGFR), ELISA; conditions: 50% inhibition of target PTK activity; read-out: bio PDGFR IC50
T1 construct: expressed in transfected cells; host or cells: NIH 3T3
Method: This assay measures the in vitro kinase activity of PDGFR using ELISA.
6. PDGFR-β expressing NIH 3T3 cell lysate (Screening Lab, SUGEN, Inc.).
1. Coat Corning 96 well ELISA plates with 0.5 μg 28D4C10 in 100 μl PBS per well, store overnight at 4° C.
2. Remove unbound 28D4C10 from wells by inverting plate to remove liquid. Wash 1× with dH2O. Pat the plate on a paper towel to remove excess liquid.
(§1) 3. Add 150 μl of Blocking Buffer to each well. Incubate for 30 min. at room temperature with shaking.
(§2) 4. Wash plate 3× with deionized water, then once with TBST. Pat plate on a paper towel to remove excess liquid and bubbles.
5. Dilute lysate in HNTG (10 μg lysate/100 μl HNTG)
(§3) 6. Add 100 μl of diluted lysate to each well. Shake at room temperature for 60 min.
(§4) 7. Wash plates as described in 4, above.
8. Add 80 μl working kinase buffer mix to ELISA plate containing captured PDGFR.
10. Add 10 μl diluted test compound to ELISA plate.
(§5) 11. Incubate for 30 minutes while shaking at room temperature.
12. Add 10 μl ATP directly to all wells except negative control well (final well volume should be approximately 100 μl with 20 μM ATP in each well.) Incubate 30 minutes while shaking.
13. After 30 minutes, stop reaction by adding 10 μl of 200 mM EDTA (pH 8.0) to each well.
(§6) 14. Wash 4× with deionized water, twice with TBST.
15. Add 100 μl anti-phosphotyrosine (1:3000 dilution in TBST) per well. Incubate 30-45 min. at room temperature, with shaking.
(§7) 16. Wash as described in 4, above.
17. […] Incubate 30 min. at room temperature, with shaking.
(§8) 18. Wash as described in 4, above.
(§9) 19. Add 100 μl of ABTS/H2O2 solution to each well.
20. Incubate 10 to 30 minutes with shaking. Remove any bubbles.
(§10) 21. If necessary stop reaction with the addition of 100 μl 0.2 M HCl per well.

src protein kinase = target: T2, src protein kinase (Gallus gallus, UniProt P00523); assay: Biochemical src assay (bio SRC); for bio SRC, outcome of primary assay: key: DNH = did not hit in primary assay
T2 construct: made in house; host or cells: Schizosaccharomyces pombe strain SP200
Method: This assay is used to determine src protein kinase activity measuring phosphorylation of a biotinylated peptide as the readout.
a. Yeast transformed with src (Sugen, Inc., Redwood City, Calif.).
1. Coat ELISA plate with 0.5 μg/well anti-src mab in 100 μl of pH 9.6 sodium carbonate buffer; hold at 4° C. overnight.
2. Wash wells once with PBS.
3. Block plate with 0.15 ml 5% milk in PBS for 30 min. at room temperature.
4. Wash plate 5× with PBS.
5. Add 10 μg/well of src transformed yeast lysates diluted in Lysis Buffer (0.1 ml total volume per well). (Amount of lysate may vary between batches.) Shake plate for 20 minutes at room temperature.
1. 4G10 plate: coat 0.5 μg/well 4G10 in 100 μl PBS overnight at 4° C. and block with 150 μl of 5% milk in PBS for 30 minutes at room temperature.
1. Remove unbound proteins.from plates and wash plates 5× with PBS.
2. Add 0.08 ml Kinase Reaction Mixture per well (containing 10 μl of 10×-Kinase Buffer and 10 μM (final concentration) biotin-EEEYEEYEEEYEEEYEEEY per well diluted in water.
3. Add 10 μl of compound diluted in water containing 10% DMSO and pre-incubate for 15 minutes at room temperature.
4. Start kinase reaction by adding 10 μl/well of 0.05 mM ATP in water (5 μM ATP final).
5. Shake ELISA plate for 15 min. at room temperature.
6. Stop kinase reaction by adding 10 μl of 0.5 M EDTA per well.
7. Transfer 90 μl supernatant to a blocked 4G10 coated ELISA plate.
8. Incubate for 30 min. while shaking at room temperature.
9. Wash plate 5× with TBST.
10. Incubate with Vectastain ELITE ABC reagent (100 μl/well) for 30 min. at room temperature.
11. Wash the wells 5× with TBST.
12. Develop with Turbo TMB.

IGF-1 receptor = target: T3, IGF-1 receptor (Homo sapiens, UniProt P08069); assay: Cellular IGF-1 receptor assay (cell IGF); assay type: cell-based; for cell IGF, outcome of primary assay: key: DNH = did not hit in primary assay
T3 construct: expressed in transfected cells; host or cells: NIH3T3/IGF-1R
Method: The following protocol may be used to measure phosphotyrosine level on IGF-1 receptor, which indicates IGF-1 receptor tyrosine kinase activity.
a. The cell line used in this assay is 3T3/IGF-1R, a cell line genetically engineered to overexpresses IGF-1 receptor.
2. […] Incubate for 1 day then replace medium to serum-free medium (90/μl) and incubate in 5% CO2 and 37° C. overnight.
2. Remove the coating solution, and replace with 100 μl Blocking Buffer, and shake for 30 minutes. Remove the blocking buffer and wash the plate just before adding lysate.
1. The drugs are tested under serum-free condition.
2. Dilute drug stock (in 100% DMSO) 1:10 with DMEM in 96-well poly-propylene plate, and transfer 10 μl/well of this solution to the cells to achieve final drug dilution 1:100, and final DMSO concentration of 1.0%. Incubate the cells in 5% CO2 at 37° C. for 2 hours.
3. Prepare fresh cell lysis buffer (HNTG*)
4. After drug incubation for two hours, transfer 10 μl/well of 200 nM IGF-1 Ligand in PBS to the cells (Final Conc. is 20 nM), and incubate at 5% CO2 at 37° C. for 10 minutes.
5. Remove media and add 100 μl/well HNTG* and shake for 10 minutes. Look at cells under microscope to see if they are adequately lysed.
6. Use a 12-channel pipette to scrape the cells from the plate, and homogenize the lysate by repeated aspiration and dispensing. Transfer all the lysate to the antibody coated ELISA plate, and shake for 1 hour.
7. Remove the lysate, wash the plate, transfer anti-pTyr (1:3,000 with TBST) 100 μl/well, and shake for 30 minutes.
8. Remove anti-pTyr, wash the plate, transfer TAGO (1:3,000 with TBST) 100 μl/well, and shake for 30 minutes.
9. Remove detection antibody, wash the plate, and transfer fresh ABTS/H2O2 (1.2 μl H2O2 to 10 ml ABTS) 100 μl/well to the plate to start color development.
10. Measure OD at 410 nm with a reference wavelength of 630 nm in Dynatec MR5000.

EGFR = EGFR (Homo sapiens, UniProt P00533); assay: Biochemical EGFR assay (bio EGFR), ELISA; set-up: A431 cell lysate (Screening Lab, SUGEN, Inc.); endogenous in cells; host or cells: A431; conditions: 50% inhibition of target PTK activity; read-out: bio EGFR (Page 5) IC50
Method: This assay measures the in vitro kinase activity of EGFR using ELISA.
6. A431 cell lysate (Screening Lab, SUGEN, Inc.)
1. Coat Corning 96 well ELISA plates with 0.5 μg […] in
100 μl PBS per well, store overnight at 4° C.
2. Remove unbound SUMO1 from wells by inverting plate to remove liquid. Wash 1× with dH2O. Pat the plate on a paper towel to remove excess liquid.
as §1, §2
5. Dilute lysate in PBS (7 μg lysate/100 μl PBS).
as §3, §4
8. Add 120 μl TBS to ELISA plate containing captured EGFR.
9. Dilute test compound 1:10 in TBS in 96-well polypropylene plates (ie. 10 μl compound+90 μl TBS).
10. Add 13.5 μl diluted test compound to ELISA plate.
as §5
13. After 5 minutes, stop reaction by adding 16.5 μl of 200 mM EDTA (pH 8.0) to each well, shaking continuously. After the EDTA has been added, shake for 1 min.
as §6
15. Add 100 μl anti-phosphotyrosine (1:3000 dilution.in TBST) per well. Incubate 30-45 min. at room temperature, with shaking.
as §7
17. Add 100 μl Biosource Goat anti-rabbit IgG peroxidase conjugate (1:2000 dilution in TBST) to each well. Incubate 30 min. at room temperature, with shaking.
as §8, §9
20. Incubate 5 to 10 minutes with shaking. Remove any bubbles.
as §10
22. Read assay on Dynatech MR7000 ELISA reader. Test Filter: 410 nM Reference Filter: 630 nM

Pyk2 = Pyk2 (Homo sapiens, UniProt Q14289); assay: Pyk2 assay; assay type: biochemical; for Pyk2, outcome of primary assay: key: DNH = did not hit in primary assay
Chain of Pyk2 (Q14289 whole entry, species assumed): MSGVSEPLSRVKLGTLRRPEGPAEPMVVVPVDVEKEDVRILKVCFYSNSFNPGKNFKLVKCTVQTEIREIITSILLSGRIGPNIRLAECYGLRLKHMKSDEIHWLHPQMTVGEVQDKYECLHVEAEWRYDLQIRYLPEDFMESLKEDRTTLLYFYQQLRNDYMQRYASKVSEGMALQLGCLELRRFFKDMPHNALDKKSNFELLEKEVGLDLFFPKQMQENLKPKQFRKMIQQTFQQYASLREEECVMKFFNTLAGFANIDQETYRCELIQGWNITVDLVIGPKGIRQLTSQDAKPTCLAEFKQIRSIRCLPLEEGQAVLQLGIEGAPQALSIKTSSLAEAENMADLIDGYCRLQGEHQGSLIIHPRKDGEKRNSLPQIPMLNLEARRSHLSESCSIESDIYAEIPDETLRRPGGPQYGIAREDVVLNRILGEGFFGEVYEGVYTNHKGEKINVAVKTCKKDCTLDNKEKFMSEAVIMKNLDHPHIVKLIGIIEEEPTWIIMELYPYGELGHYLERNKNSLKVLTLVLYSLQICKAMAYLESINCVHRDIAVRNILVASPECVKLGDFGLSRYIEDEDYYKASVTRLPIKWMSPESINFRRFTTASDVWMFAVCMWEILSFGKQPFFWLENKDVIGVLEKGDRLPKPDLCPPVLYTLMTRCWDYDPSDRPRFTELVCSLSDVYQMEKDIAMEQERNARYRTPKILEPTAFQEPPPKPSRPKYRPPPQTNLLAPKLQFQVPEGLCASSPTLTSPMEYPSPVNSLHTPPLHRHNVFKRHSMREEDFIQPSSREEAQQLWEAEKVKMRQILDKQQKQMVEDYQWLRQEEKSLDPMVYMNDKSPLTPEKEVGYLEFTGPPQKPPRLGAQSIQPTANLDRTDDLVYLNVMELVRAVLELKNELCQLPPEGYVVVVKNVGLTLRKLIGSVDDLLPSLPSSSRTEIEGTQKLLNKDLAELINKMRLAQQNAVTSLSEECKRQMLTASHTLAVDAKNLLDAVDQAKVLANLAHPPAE

Chain of EGFR (P00533 25-1210): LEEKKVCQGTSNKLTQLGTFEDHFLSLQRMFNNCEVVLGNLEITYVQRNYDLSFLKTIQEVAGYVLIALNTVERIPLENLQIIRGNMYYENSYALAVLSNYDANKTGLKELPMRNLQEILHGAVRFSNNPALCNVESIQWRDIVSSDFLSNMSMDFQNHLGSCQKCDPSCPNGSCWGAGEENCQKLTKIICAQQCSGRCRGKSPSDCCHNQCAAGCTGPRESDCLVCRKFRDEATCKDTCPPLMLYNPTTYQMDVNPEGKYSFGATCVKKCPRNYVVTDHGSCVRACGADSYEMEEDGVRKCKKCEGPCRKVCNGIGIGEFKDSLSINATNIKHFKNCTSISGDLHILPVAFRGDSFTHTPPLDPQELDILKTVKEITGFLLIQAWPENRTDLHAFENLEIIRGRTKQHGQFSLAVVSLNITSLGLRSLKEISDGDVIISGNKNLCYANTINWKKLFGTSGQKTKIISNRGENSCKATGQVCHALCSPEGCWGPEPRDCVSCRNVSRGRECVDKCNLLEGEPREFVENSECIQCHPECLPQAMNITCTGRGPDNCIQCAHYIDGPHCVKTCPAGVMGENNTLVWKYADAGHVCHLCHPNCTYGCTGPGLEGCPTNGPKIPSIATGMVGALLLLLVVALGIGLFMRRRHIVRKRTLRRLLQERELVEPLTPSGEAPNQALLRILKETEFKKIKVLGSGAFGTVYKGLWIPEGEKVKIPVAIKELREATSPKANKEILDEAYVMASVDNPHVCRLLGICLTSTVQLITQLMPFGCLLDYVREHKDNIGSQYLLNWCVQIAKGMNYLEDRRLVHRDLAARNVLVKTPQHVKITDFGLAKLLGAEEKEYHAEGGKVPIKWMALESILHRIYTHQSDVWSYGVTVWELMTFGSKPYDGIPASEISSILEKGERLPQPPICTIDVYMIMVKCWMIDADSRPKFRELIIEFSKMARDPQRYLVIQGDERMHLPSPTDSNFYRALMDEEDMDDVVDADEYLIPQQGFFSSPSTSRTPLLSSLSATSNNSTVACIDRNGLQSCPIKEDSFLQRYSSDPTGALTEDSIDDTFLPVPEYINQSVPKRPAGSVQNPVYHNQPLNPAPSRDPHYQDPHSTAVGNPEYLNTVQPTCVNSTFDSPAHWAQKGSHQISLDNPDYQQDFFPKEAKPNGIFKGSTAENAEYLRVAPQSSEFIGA
T3 sequence (P08069 31-1367): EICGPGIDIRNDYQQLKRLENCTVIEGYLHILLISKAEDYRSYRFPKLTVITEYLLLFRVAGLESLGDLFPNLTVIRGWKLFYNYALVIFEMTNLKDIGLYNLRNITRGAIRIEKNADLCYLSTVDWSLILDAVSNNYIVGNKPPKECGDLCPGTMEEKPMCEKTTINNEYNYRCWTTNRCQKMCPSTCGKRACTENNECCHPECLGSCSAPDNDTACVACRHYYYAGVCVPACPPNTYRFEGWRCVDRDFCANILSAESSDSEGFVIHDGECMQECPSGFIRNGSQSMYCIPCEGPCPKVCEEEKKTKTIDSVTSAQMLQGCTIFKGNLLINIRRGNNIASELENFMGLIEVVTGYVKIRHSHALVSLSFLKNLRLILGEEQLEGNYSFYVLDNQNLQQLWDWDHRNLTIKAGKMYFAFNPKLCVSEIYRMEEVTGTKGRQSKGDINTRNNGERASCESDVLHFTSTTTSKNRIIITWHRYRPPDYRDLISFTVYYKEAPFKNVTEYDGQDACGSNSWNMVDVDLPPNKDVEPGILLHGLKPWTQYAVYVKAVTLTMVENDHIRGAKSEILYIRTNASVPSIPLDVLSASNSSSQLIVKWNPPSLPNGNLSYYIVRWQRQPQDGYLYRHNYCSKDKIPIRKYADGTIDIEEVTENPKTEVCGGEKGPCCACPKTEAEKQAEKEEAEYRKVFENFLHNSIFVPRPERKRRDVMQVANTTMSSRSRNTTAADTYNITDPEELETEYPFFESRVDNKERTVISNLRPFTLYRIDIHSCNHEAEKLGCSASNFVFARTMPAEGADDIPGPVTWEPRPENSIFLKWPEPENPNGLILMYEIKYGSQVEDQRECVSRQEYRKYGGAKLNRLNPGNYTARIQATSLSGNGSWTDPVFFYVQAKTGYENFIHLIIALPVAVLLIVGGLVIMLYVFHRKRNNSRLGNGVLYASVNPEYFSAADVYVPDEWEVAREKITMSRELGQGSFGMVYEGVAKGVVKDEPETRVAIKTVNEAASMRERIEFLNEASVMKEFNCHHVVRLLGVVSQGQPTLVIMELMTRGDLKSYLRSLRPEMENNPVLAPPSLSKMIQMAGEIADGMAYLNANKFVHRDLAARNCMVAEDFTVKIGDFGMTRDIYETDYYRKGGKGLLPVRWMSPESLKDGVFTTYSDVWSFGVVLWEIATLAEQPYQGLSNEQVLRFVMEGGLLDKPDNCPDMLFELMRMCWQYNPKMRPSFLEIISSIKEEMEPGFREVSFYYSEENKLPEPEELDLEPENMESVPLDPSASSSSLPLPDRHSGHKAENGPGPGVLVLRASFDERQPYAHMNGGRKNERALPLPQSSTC
T1 sequence (P09619 33-1106, species assumed): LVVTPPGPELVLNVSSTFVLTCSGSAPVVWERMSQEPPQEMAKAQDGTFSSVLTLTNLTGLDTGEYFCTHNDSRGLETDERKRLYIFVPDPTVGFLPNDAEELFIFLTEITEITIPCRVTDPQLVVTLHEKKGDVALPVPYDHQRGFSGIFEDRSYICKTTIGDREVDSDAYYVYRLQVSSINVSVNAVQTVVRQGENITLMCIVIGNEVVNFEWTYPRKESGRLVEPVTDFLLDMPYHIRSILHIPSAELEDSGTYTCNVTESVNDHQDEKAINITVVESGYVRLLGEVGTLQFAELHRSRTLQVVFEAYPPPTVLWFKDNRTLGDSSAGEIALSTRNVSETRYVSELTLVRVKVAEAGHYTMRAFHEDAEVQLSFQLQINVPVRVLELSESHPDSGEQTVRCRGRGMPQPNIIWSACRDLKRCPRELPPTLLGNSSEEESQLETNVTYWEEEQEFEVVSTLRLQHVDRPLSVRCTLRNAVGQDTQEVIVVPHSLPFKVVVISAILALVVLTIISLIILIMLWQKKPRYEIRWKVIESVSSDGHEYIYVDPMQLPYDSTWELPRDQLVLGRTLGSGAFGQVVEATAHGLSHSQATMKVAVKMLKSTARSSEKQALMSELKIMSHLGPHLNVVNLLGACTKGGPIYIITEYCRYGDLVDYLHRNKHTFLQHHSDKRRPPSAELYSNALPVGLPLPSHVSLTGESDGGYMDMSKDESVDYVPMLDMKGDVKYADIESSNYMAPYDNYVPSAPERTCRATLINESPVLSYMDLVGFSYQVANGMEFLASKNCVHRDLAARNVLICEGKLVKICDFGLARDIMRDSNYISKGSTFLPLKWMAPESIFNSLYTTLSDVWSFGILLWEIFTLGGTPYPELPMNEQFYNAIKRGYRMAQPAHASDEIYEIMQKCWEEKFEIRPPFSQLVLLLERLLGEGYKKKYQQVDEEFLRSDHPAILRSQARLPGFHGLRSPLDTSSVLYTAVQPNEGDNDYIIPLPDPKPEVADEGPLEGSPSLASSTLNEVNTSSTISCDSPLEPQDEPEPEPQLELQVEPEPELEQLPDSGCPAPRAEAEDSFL

IC50 (PDGFR) [µM]	bio SRC, outcome of primary assay (src protein kinase; primary assay)	cell IGF, outcome of primary assay (IGF-1 receptor; primary assay)	IC50 (EGFR) [µM]	Pyk2, outcome of primary assay (Pyk2; primary assay)	IC50 (src protein kinase; 50% inhibition of target PTK activity) [µM]	cell IGF % Inh (IGF-1 receptor; concentration not given) [% Inh]	IC50 (Pyk2; 50% inhibition of target PTK activity, read-out: Pyk2 IC50) [µM]	Compound
> 100	DNH	DNH	> 100	DNH				COc1ccc2c(c1)/C(=C1\C(=O)Nc3ccccc31)CC2 [Compound 4, 3-(6-Methoxyindan-1-ylidene)-1,3-dihydroindol-2-one]
5.5			> 100		> 100	96.7	8.1	Nc1ccc2c(c1)CC/C2=C1/C(=O)Nc2ccccc21 [Compound 6, 3-(5-Aminoindan-1-ylidene)-1,3-dihydroindol-2-one]
